Measurements: ChEMBL document CHEMBL5150060 (J Med Chem, 2022)
Activity calls are given as the source filed them. The rule behind the calls is not given here.

Key:
Histone deacetylase 8 = molecular target: T1, Histone deacetylase 8 (Homo sapiens, UniProt Q9BY41); assay: Competitive inhibition of human HDAC8 using Abz-SRGGK(STFA)FFRR-NH2 (S) as substrate by Lineweaver-burk plot analysis
T1 sequence (Q9BY41 whole entry): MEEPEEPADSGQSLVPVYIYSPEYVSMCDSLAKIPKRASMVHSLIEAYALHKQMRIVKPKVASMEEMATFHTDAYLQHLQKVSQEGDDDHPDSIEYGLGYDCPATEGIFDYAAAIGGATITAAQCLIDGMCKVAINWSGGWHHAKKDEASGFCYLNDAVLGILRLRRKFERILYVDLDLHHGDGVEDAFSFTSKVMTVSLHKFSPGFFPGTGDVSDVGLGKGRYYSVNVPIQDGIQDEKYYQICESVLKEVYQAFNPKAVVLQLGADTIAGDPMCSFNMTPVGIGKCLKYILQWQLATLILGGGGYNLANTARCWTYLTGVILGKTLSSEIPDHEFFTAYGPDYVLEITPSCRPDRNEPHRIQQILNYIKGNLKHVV

[1] = molecular target: T2, Histone deacetylase 8 (Homo sapiens) (UniProt Q9BY41); assay: Inhibition of HDAC8 in human Jurkat T cells assessed as upregulation of KLRG expression at 10 uM after 6 to 12 hrs by RT-qPCR analysis; assay type: cell-based; details: time 6-12 hrs
T2 sequence (whole entry): T1 sequence (Q9BY41 whole entry)

[2] = Toxicity in C57BL/6 mouse assessed as change in kidney weight at 5 to 10 mg/kg, ip administered 5 days per week for 2 weeks by H and E staining based assay; assay type: organism-based; details: in vivo, 336 h, dose 5-10 mg/kg
Histone deacetylase 4 = Histone deacetylase 4 (Homo sapiens, UniProt P56524); assay: Inhibition of HDAC4 (unknown origin)
Histone deacetylase 4, sequence (P56524 whole entry): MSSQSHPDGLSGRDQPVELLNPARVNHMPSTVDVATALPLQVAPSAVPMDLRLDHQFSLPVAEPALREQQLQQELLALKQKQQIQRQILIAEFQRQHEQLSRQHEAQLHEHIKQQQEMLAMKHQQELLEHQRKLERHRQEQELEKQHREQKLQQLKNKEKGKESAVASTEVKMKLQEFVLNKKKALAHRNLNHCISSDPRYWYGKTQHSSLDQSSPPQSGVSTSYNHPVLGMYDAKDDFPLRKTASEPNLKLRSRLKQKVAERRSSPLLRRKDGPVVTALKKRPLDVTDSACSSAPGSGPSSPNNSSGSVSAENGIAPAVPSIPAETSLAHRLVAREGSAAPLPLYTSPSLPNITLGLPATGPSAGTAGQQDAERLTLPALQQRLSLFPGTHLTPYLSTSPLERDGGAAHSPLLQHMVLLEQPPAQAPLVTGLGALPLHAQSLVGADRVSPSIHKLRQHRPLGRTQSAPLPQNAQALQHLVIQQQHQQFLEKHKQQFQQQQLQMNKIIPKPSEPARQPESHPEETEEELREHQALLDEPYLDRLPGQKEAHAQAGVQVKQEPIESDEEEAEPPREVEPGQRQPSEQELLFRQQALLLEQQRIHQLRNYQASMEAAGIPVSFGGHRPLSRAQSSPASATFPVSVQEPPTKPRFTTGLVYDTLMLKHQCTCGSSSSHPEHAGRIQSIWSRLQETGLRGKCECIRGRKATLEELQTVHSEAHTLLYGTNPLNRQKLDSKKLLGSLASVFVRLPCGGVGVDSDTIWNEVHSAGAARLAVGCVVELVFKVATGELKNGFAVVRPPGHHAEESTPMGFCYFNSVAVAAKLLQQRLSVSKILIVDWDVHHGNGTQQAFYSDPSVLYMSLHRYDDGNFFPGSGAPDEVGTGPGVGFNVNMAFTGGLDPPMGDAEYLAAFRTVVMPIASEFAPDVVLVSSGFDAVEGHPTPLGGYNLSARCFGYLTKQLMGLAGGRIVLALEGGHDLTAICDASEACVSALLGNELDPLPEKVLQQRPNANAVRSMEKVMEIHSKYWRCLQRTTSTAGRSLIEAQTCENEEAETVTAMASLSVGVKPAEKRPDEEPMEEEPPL

[3] = molecular target: T2, Histone deacetylase 8 (Homo sapiens); assay: Inhibition of HDAC8 in human Jurkat T cells assessed as upregulation of IL5 expression at 10 uM after 6 to 12 hrs by RT-qPCR analysis; assay type: cell-based; details: time 6-12 hrs
Histone deacetylase 2 = Histone deacetylase 2 (Homo sapiens, UniProt Q92769); assay: Inhibition of recombinant human HDAC2 using p53 (Ac-RHKK(Acetyl)-AMC) as substrate preincubated for 5 mins followed by substrate addition and measured after 30 mins by fluorescence based analysis
Histone deacetylase 2, sequence (Q92769 whole entry): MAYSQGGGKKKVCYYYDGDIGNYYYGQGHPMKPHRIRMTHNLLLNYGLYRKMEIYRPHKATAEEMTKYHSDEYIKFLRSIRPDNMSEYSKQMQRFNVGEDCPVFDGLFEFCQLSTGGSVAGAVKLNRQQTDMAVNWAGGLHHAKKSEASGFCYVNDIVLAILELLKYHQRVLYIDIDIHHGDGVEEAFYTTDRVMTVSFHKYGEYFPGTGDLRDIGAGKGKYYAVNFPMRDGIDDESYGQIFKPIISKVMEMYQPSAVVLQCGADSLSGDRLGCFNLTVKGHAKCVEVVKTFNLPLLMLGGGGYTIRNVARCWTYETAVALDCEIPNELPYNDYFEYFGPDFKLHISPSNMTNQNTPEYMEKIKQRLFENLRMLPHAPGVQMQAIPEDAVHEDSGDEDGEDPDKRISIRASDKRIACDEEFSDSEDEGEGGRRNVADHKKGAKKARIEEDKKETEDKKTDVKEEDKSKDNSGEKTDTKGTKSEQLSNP

[4] = molecular target: T2, Histone deacetylase 8 (Homo sapiens); assay: Inhibition of HDAC8 in human Jurkat T cells assessed as upregulation of BCL6 expression at 10 uM after 6 to 12 hrs by RT-qPCR analysis; assay type: cell-based; details: time 6-12 hrs
[5] = Toxicity in C57BL/6 mouse assessed as change in stomach weight at 5 to 10 mg/kg, ip administered 5 days per week for 2 weeks by H and E staining based assay; assay type: organism-based; details: in vivo, 336 h, dose 5-10 mg/kg
[6] = Toxicity in C57BL/6 mouse assessed as change in intestine weight at 5 to 10 mg/kg, ip administered 5 days per week for 2 weeks by H and E staining based assay; assay type: organism-based; details: in vivo, 336 h, dose 5-10 mg/kg
[7] = molecular target: T3, Protein deacetylase HDAC6 (Mus musculus) (UniProt Q9Z2V5); assay: Inhibition of HDAC6 in mouse spleen CD4+ T- lymphocytes assessed as increase in SMC3 acetylation level at 5 to 10 uM after 6 hrs by Western blot analysis; assay type: cell-based; details: CD4+ve Th, dose 5-10 µM
T3 sequence (whole entry): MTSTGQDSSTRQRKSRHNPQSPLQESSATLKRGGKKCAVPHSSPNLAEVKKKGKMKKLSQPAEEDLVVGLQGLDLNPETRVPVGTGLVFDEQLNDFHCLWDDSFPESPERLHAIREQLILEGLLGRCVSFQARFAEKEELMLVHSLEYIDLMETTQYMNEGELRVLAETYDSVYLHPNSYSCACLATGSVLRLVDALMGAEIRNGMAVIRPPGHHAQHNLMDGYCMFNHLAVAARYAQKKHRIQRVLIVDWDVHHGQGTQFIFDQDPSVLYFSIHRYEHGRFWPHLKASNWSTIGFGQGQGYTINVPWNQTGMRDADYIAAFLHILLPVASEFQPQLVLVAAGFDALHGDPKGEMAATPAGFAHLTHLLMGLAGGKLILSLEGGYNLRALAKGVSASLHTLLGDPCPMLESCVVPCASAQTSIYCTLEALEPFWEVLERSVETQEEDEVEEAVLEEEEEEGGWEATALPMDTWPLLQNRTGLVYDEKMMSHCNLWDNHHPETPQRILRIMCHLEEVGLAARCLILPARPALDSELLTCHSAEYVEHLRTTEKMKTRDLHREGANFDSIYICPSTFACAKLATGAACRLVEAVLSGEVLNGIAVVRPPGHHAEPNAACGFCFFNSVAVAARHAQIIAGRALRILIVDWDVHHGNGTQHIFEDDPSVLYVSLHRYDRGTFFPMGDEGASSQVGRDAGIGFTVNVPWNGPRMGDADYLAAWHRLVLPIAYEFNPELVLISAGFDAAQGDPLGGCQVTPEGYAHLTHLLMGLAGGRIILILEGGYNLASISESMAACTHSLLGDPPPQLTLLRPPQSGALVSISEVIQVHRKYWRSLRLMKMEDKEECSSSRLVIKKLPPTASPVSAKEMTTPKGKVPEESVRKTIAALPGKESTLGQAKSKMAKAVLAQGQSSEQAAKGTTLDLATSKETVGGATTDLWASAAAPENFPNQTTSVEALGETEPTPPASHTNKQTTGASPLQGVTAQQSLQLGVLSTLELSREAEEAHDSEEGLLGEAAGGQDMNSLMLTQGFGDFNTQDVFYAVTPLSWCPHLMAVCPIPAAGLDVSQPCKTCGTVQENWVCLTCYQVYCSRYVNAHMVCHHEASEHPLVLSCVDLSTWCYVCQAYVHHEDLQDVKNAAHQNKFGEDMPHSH

Histone deacetylase 3 = Histone deacetylase 3 (Homo sapiens, UniProt O15379); assay: Inhibition of recombinant human HDAC3 using p53 (Ac-RHKK(Acetyl)-AMC) as substrate preincubated for 5 mins followed by substrate addition and measured after 30 mins by fluorescence based analysis
Histone deacetylase 3, sequence (O15379 whole entry): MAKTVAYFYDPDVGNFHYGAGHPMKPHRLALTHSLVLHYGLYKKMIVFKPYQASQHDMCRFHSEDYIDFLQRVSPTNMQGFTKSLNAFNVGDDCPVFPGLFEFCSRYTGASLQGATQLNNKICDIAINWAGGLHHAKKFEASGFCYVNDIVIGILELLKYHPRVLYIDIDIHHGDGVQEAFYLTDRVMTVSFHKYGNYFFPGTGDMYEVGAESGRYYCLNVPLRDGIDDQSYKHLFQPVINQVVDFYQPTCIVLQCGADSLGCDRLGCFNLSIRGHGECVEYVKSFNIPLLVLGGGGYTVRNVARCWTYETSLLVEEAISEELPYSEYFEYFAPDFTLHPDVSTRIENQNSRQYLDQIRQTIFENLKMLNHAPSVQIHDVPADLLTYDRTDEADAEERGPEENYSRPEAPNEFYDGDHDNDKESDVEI

Histone deacetylase 1 = Histone deacetylase 1 (Homo sapiens, UniProt Q13547); assay: Inhibition of recombinant human HDAC1 using p53 (Ac-RHKK(Acetyl)-AMC) as substrate preincubated for 5 mins followed by substrate addition and measured after 90 mins by fluorescence based analysis
Histone deacetylase 1, sequence (Q13547 whole entry): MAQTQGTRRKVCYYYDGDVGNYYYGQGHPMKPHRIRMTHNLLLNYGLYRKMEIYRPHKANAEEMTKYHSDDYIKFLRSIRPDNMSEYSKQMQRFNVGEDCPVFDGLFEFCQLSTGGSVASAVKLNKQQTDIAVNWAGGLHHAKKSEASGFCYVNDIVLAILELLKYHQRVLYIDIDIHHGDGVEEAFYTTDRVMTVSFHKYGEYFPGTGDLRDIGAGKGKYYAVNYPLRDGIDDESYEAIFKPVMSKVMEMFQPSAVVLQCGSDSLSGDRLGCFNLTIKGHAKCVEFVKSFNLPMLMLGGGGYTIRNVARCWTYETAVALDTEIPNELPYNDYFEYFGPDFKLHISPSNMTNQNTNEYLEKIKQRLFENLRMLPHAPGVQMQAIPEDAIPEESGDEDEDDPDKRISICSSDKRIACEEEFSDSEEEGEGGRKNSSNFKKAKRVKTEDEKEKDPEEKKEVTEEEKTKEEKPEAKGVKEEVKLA

[8] = molecular target: T2, Histone deacetylase 8 (Homo sapiens); assay: Inhibition of HDAC8 in human Jurkat T cells assessed as upregulation of TBX21 expression after 6 hrs by RT-qPCR analysis; assay type: cell-based; details: dose 0.1-10 µM, DDE = dose-dependent effect
[9] = Stability of compound in DMEM/DMSO/acetonitrile at pH 7.4 measured after 6 hrs by HPLC analysis; assay type: physicochemical; details: read-out: Stability
[10] = Toxicity in C57BL/6 mouse assessed as change in body weight at 5 to 10 mg/kg, ip administered 5 days per week for 2 weeks; assay type: organism-based; details: in vivo, 336 h, dose 5-10 mg/kg
[11] = Toxicity in C57BL/6 mouse assessed as change in spleen weight at 5 to 10 mg/kg, ip administered 5 days per week for 2 weeks by H and E staining based assay; assay type: organism-based; details: in vivo, 336 h, dose 5-10 mg/kg
Mus musculus = assay: Immuno-modulatory activity in C57BL/6 mouse assessed as increase in IL2 expression in CD4+ cells at 10 mg/kg, ip administered 5 days per week for 2 weeks by RT-qPCR analysis; assay type: functional, organism-based
[12] = molecular target: T2, Histone deacetylase 8 (Homo sapiens); assay: Inhibition of HDAC8 in human Jurkat T cells assessed as upregulation of GATA3 expression after 6 hrs by RT-qPCR analysis; assay type: cell-based; details: dose 0.1-10 µM, DDE = dose-dependent effect

Ki (Histone deacetylase 8): 0.0306 µM
inhibition [1]: Active
IC50 (Histone deacetylase 4): > 20 µM
inhibition [3]: Active
IC50 (Histone deacetylase 2): 12 µM
inhibition [4]: Active
inhibition [7]: Active
IC50 (Histone deacetylase 3): > 20 µM
IC50 (Histone deacetylase 1): 1.8 µM
inhibition [8]: Dde
remaining at 6 h [9]: 103%
inhibition [12]: Dde
Structure (SMILES): CCCCCCNNC(=O)c1ccc(-c2ccc(CNC(C)=O)cc2)cc1
Activity [2]: Non-Toxic
Activity [5]: Non-Toxic
Activity [6]: Non-Toxic
Activity [10]: Non-Toxic
Activity [11]: Non-Toxic
Activity (Mus musculus): Active
